# Laboratory results reported in patent publication US20070259014A1, “Compositions for and Methods for Treating Hiv” (VGX PHARMACEUTICALS, INC., priority 2003, published 2007).
# Read-outs that look alike come from different tables or passages of the source.
# Key:
# [1] = target: T1, human glucocorticoid receptor (Homo sapiens, UniProt P04150); test: Relative binding affinity to the human glucocorticoid receptor / anti-glucocorticoid activity; conditions: comparative ratio of anti-glucocorticoid to anti-progesterone activity
# T1 sequence (P04150 1-777): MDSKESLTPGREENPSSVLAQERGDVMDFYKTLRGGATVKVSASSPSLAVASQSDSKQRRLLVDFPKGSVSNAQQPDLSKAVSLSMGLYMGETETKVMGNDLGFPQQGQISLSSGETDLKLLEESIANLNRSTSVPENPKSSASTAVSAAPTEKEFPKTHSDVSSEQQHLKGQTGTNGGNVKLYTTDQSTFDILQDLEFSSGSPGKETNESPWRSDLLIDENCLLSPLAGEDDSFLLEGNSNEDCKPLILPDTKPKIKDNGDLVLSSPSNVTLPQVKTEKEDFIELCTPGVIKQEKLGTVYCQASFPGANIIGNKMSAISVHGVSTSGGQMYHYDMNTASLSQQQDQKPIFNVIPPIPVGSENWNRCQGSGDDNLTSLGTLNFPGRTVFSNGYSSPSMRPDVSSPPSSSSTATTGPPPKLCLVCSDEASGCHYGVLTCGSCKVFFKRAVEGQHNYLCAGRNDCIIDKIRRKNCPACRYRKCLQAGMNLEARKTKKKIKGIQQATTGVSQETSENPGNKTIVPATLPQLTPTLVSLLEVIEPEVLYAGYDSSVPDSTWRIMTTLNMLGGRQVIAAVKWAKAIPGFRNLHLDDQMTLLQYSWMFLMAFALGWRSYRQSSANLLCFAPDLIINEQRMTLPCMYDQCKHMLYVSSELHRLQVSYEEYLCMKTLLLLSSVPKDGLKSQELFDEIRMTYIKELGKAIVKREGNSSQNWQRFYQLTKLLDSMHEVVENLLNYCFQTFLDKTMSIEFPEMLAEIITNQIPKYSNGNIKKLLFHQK
# [2] = Sarkar, 2002; cited from earlier work
# [3] = target: Progesterone (Homo sapiens, UniProt P06401); conditions: comparative activity, Table 2; cited from earlier work
# [4] = target: T1, human glucocorticoid receptor; conditions: cited from earlier work
# [5] = tested on: LL58; test: Anti-viral effect in vitro (Table 1), LL58 infected cell; type: cell-based, HIV
# [6] = tested on: 91US056; test: Anti-viral effect in vitro (Table 1), 91US056; type: cell-based, HIV; conditions: 91US056, Clinical isolate, R5 (NSI)
# [7] = tested on: 92US657; test: Anti-viral effect in vitro (Table 1), 92US657; type: cell-based, HIV; conditions: 92US657, Clinical isolate, R5 (NSI)
# [8] = tested on: 92US723; test: Anti-viral effect in vitro (Table 1), 92US723; type: cell-based, HIV; conditions: 92US723, Clinical isolate, R5X4
# [9] = tested on: HIV+ Patient 1 infected PBMCs; test: Anti-viral effect in vitro (Table 1), HIV+ Patient 1 infected PBMCs; type: cell-based
# [10] = tested on: alpha 1-acid glycoprotein (AAG); conditions: in-vitro studies; cited from earlier work
# [11] = tested on: wild type HIV-1 NL43 virus
# [12] = tested on: HIV-1 89.6; test: Anti-viral effect in vitro (Table 1), HIV-1 89.6; type: cell-based; conditions: HIV-1 89.6, Lab isolate, R5X4
# [13] = tested on: 92US727; test: Anti-viral effect in vitro (Table 1), 92US727; type: cell-based, HIV; conditions: 92US727, Clinical isolate, R5 (NSI)
# [14] = tested on: OM-10.1; test: Anti-viral effect in vitro (Table 1), OM-10.1 infected cell; type: cell-based, HIV
# [15] = tested on: J1.1; test: Anti-viral effect in vitro (Table 1), J1.1 infected cell; type: cell-based, HIV
# [16] = tested on: U1; test: Anti-viral effect in vitro (Table 1), U1 infected cell; type: cell-based, HIV
# [17] = tested on: HIV+ Patient 3 infected PBMCs; test: Anti-viral effect in vitro (Table 1), HIV+ Patient 3 infected PBMCs; type: cell-based
# [18] = tested on: laboratory adapted and clinical isolate viruses (HIV); test: Inhibition of viral replication, several laboratory adapted and clinical isolate viruses; type: cell-based; conditions: mifepristone 40-1000 nM (17-430 ng/ml)
# [19] = tested on: HIV-1 NL43; test: Anti-viral effect in vitro (Table 1), HIV-1 NL43; type: cell-based; conditions: HIV-1 NL43, Lab isolate
# [20] = tested on: HIV-1 BaL; test: Anti-viral effect in vitro (Table 1), HIV-1 BaL; type: cell-based; conditions: Lab isolate, R5 (NSI)
# [21] = tested on: 92US714; test: Anti-viral effect in vitro (Table 1), 92US714; type: cell-based, HIV; conditions: 92US714, Clinical isolate, R5 (NSI)
# [22] = tested on: HIV+ Patient 2 infected PBMCs; test: Anti-viral effect in vitro (Table 1), HIV+ Patient 2 infected PBMCs; type: cell-based
# [23] = tested on: 92US660; test: Anti-viral effect in vitro (Table 1), 92US660; type: cell-based, HIV; conditions: 92US660, Clinical isolate, R5 (NSI)
# [24] = tested on: HIV-1 Ada; test: Anti-viral effect in vitro (Table 1), HIV-1 Ada; type: cell-based; conditions: Lab isolate, R5 (NSI)
# [25] = tested on: HIV+ Patient 4 infected PBMCs; test: Anti-viral effect in vitro (Table 1), HIV+ Patient 4 infected PBMCs; type: cell-based
# [26] = tested on: 91US054; test: Anti-viral effect in vitro (Table 1), 91US054; type: cell-based, HIV; conditions: 91US054, Clinical isolate, R5 (NSI)
# [27] = tested on: ACH-2; test: Anti-viral effect in vitro (Table 1), ACH-2 infected cell; type: cell-based, HIV
# Progesterone, sequence (P06401 whole entry): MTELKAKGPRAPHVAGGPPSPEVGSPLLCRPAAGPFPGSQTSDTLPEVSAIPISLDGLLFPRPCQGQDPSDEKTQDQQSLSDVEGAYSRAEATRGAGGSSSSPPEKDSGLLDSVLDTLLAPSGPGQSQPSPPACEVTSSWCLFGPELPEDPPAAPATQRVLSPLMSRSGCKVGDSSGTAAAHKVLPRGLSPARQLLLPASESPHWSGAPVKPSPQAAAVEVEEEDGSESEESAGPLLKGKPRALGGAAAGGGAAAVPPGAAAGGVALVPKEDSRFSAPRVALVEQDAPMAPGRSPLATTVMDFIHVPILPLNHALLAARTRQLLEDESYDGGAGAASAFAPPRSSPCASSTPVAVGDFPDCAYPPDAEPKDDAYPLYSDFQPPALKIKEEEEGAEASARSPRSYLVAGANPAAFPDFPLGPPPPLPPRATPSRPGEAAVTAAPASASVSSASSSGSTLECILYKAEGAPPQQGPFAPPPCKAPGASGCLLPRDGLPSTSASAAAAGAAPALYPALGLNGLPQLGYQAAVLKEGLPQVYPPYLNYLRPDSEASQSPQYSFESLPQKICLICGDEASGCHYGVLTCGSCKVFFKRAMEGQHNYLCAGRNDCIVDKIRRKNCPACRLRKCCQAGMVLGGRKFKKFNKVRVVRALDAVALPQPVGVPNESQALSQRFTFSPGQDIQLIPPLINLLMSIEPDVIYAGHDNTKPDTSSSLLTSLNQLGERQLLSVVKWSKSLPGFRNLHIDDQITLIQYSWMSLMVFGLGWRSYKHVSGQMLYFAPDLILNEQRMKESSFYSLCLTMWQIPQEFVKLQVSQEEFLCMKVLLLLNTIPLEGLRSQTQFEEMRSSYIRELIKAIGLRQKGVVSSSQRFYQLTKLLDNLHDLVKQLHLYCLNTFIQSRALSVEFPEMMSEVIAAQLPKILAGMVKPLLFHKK
compound,measurement,setting,value
CC#C[C@]1(C)CCC2C3CCC4=CC(=O)CCC4=C3[C@@H](c3ccc(NC)cc3)C[C@@]21C (some centres unmarked),A-G/A-P,[1],290%
same,Serum levels of the metabolite compared with Mifepristone,[2],always exceeded those of Mifepristone
same,Anti-Progesterone,[3],21%
same,relative binding affinities to the human glucocorticoid receptor,[4],61%
same,Anti-Glucocorticoid,"[4]; comparative activity, Table 2",61%
"11β-(4dimethylaminophenyl)-17β-hydroxy-17-α-(propyl-lynyl)-4,9-dien-3-one [Mifepristone]",Maximum % Reduction in Viral Replication By Mifepristone in PBMCs,[5],>90%
same,Maximum % Reduction in Viral Replication By Mifepristone in PBMCs,[6],>95%
same,Maximum % Reduction in Viral Replication By Mifepristone in PBMCs,[7],>80%
same,Maximum % Reduction in Viral Replication By Mifepristone in PBMCs,[8],>90%
same,Maximum % Reduction in Viral Replication By Mifepristone in PBMCs,[9],>95%
same,Mifepristone concentrations that saturate AAG,[10],exceeding 2.5 microM
same,mifepristone concentrations that consistently resulted in inhibition of HIV replication,[11]; FIG. 2,40 to 1000 nM
same,mifepristone concentrations that consistently resulted in inhibition of HIV replication,"[11]; FIG. 2, nM converted to ng/ml",17 to 430 ng/mL
same,Inhibition of viral replication by mifepristone,"[11]; U937 cells, different concentrations of mifepristone",dose-dependent
same,IC50,"[11]; read-out: IC50 of mifepristone, inhibition of HIV replication in vitro, FIG. 2, U937 cells infected with wild type HIV-1 NL43",8 nM
same,Maximum % Reduction in Viral Replication By Mifepristone in PBMCs,[12],>90%
same,Maximum % Reduction in Viral Replication By Mifepristone in PBMCs,[13],>95%
same,Maximum % Reduction in Viral Replication By Mifepristone in PBMCs,[14],>95%
same,Maximum % Reduction in Viral Replication By Mifepristone in PBMCs,[15],>95%
same,Maximum % Reduction in Viral Replication By Mifepristone in PBMCs,[16],>95%
same,Maximum % Reduction in Viral Replication By Mifepristone in PBMCs,[17],>90%
same,inhibition of viral replication,[18],> 90%
same,Maximum % Reduction in Viral Replication By Mifepristone in PBMCs,[19],>90%
same,Maximum % Reduction in Viral Replication By Mifepristone in PBMCs,[20],>90%
same,Maximum % Reduction in Viral Replication By Mifepristone in PBMCs,[21],>90%
same,Maximum % Reduction in Viral Replication By Mifepristone in PBMCs,[22],>95%
same,Maximum % Reduction in Viral Replication By Mifepristone in PBMCs,[23],>90%
same,Maximum % Reduction in Viral Replication By Mifepristone in PBMCs,[24],>90%
same,Maximum % Reduction in Viral Replication By Mifepristone in PBMCs,[25],>95%
same,Maximum % Reduction in Viral Replication By Mifepristone in PBMCs,[26],>95%
same,Maximum % Reduction in Viral Replication By Mifepristone in PBMCs,[27],>95%
C[C@]12CCC(=O)C=C1CC[C@@H]1[C@@H]2[C@@H](O)C[C@@]2(C)[C@H]1CC[C@]2(O)C(=O)CO [cortisol],relative binding affinities to the human glucocorticoid receptor,[4],23%
